Key:
[1] = target: WDR5 protein (22-334aa) with MLL1 polypeptide (3672-3773aa) (Homo sapiens, UniProt P61964); assay: WDR5-MLL PPI inhibitory activity test (HTRF); type: binding; conditions: His-tagged WDR5 and biotin-tagged MLL1 polypeptide
From the text: Test Example 1: WDR5-MLL PPI Inhibitory Activity Test
Effect of the compounds on WDR5 (WD Repeat Domain 5) and MLL1 (mixed-lineage leukemia 1) peptides at molecular level.
The effect of the compound on the interaction of WDR5 protein (22-334aa) with MLL1 polypeptide (3672-3773aa) was detected by HTRF (Homogeneous Time-Resolved Fluorescence) technology. When the N-terminal His-tagged WDR5 recognized by the Anti-6His-Eu cryptate donor interacts with the biotin-tagged MLL1 polypeptide recognized by the streptavidin-APC receptor, the donor and acceptor are pulled close enough to produce fluorescence resonance energy transfer (FRET). […] Therefore, the decrease in FRET signal can reflect the compound's inhibition on the interaction of WDR5 with MLL1 polypeptide.
The compound to be tested was diluted 3-fold with DMSO. […] Then the compound was diluted with reaction buffer (25 mM HEPES pH=7.5, 100 mM NaCl, 0.05% Tween 20) to control the final concentration of DMSO at 0.5%. In a 384-well plate, 1 μL of compound and 3 μL of 42 nM WDR5 protein were added, centrifuged at 1000 rpm for 1 min, incubated at room temperature for 60 min, followed by adding 3 μL of 333 nM MLL1 polypeptide with incubation at room temperature for 10 min, and followed by adding 3 μL of a mixed liquid of Anti-6His-Eu cryptate and streptavidin-APC with centrifugation at 1000 rpm for 1 mi and incubation at room temperature protected from light for 60 min, using a multifunction microplate reader (EnVision®2105) to read the signal. The following controls were set up per plate: control group (1 μL with 5% DMSO reaction buffer, 3 μL of 42 nM WDR5, 3 μL of MLL1 polypeptide, 3 μL of Anti-6His-Eu cryptate and streptavidin-APC). Blank group (1 μL reaction buffer with 5% DMSO, 3 μL reaction buffer, 3 μL MLL1 polypeptide, 3 μL Anti-6His-Eu cryptate and streptavidin-APC). The test data was calculated according to the signal ratio of two beams of fluorescence at different wavelengths: (665 nm signal/620 nm signal)*10000. […] The IC50 value was calculated using XLfit software.

[2] = system: MV4-11 cells; assay: MV4-11 cell proliferation inhibition experiment (CellTiter-Glo); type: cell-based; conditions: Homo sapiens, 144 h, 6 days, read-out: cell proliferation inhibitory activity
Experimental: Test Example 2: MV4-11 Cell (ATCC: CRL-9591) Proliferation Inhibition Experiment
ATP in living cells was quantitatively detected by CellTiter-Glo (Promega-G7573) Luminescence Cell Viability Assay Kit to determine the effect of the compounds to be tested on cell proliferation. • Step 1: MV4-11 cells were seeded in 96-well plates (Greiner-655098) at a density of 1,500 cells per well with a volume of 140 μL per well; Cell culture medium components included RPM11640 (Gibco-A10491-01)+10% FBS (Gibco-10099-141C)+1% Penicillin-Streptomycin (5,000 U/mL, Gibco-15070-063). • Step 2: On the day of cell seeding, the cells were treated with the compound to be tested. The compound to be tested was diluted with a 3-fold gradient, and a total of 9 concentration gradients were set. DMSO (Sigma, D2650) with 0.5% final concentration or a DMSO solution containing the compound to be tested was added per well with 2 or 3 replicate wells at each concentration point. The plates were incubated at 37° C. in a 5% CO2 incubator (Thermo Scientific Steri-Cycle 371) for 6 days. • Step 3: The cell viability in the control and treatment groups was detected with CellTiter-Glo Luminescent Cell Viability Assay Kit. 50 μL of CellTiter-Glo was added per well, mixed well, and incubated for 15 min at room temperature protected from light. According to the kit instructions, the chemiluminescence signal was read using a multifunctional microplate reader (EnVision, PerkinElmer).
The inhibition percentage (%) of the compound at each concentration point was calculated by the following formula:
Inhibition Percentage (%)=(1−signal value of the group treated with the compound/signal value of the group treated with DMSO)*100.
The value of cell proliferation semi-inhibitory concentration IC50 was calculated using GraphPad Prism software, and the results are shown in Table 2.

Structure (SMILES) | IC50 [1] | IC50 [2]
CCOc1cc(CN2CC3(CC3)c3c(CN(C)C)cc(Cn4ccnc4NC)cc3C2=O)ncc1F [Compound 76, 5′-((dimethylamino)methyl)-2′-((4-ethoxy-5-fluoropyridine-2-yl)methyl)-7′-((2-(methylamino)-1H-imidazol-1-yl)methyl)-2′,3′-dihydro-1′H-spiro[cyclopropan-1,4′-isoquinoline]-1′-one] | 20 to 100 nM | –
CNc1nccn1Cc1cc(CN(C)C)c2c(c1)C(=O)N([C@@H](C)c1cc(OC)c(F)cn1)CC21CC1 [Compound 5] | < 20 nM | < 50 nM
CCOc1cc([C@H](C)N2CC3(CC3)c3c(CN4CCN(CC(F)(F)F)CC4)cc(Cn4ccnc4NC)cc3C2=O)ncc1F [Compound 62] | < 20 nM | –
CCOc1cc(CN2CC3(CC3)c3c(CN(C)C)cc(Cn4ccnc4NC)cc3C2=O)ncc1C#N [Compound 71, 6-((5′-((dimethylamino)methyl)-7′-((2-(methylamino)-1H-imidazol-1-yl)methyl)-1′-one-1′H-spiro[cyclopropan-1,4′-isoquinoline]-2′(3′H)-yl)methyl)-4-ethoxynicotinonitrile] | < 20 nM | < 50 nM
CCOc1cc([C@H](C)N2CC3(CC3)c3c(CN(C)CC#N)cc(Cn4ccnc4NC)cc3C2=O)ncc1F [Compound 43] | < 20 nM | –
CCOc1cc(C(C)N2CC3(CCC3)c3c(CN(C)C)cc(Cn4ccc5ncccc54)cc3C2=O)ncc1C#N (stereo not drawn) [Compound 108, 6-(1-(7′-((1Hpyrrol[3,2-b]pyridine-1-yl)methyl)-5′-((dimethylamino)methyl)-1′-oxo-1′H-spiro[cyclobutan-1,4′-isoquinoline]-2′(3′H)-yl)ethyl)-4-ethoxynicotinonitrile] | 20 to 100 nM | –
CCOc1cccc2c1CCC2N1CC2(CCC2)c2c(CN(C)C)cc(Cn3ccnc3NC)cc2C1=O (stereo not drawn) [Compound 113, 5′-((dimethylamino)methyl)-2′-(4-ethoxy-2,3-dihydro-1H-indene-1-yl)-7′-((2-(methylamino)-1H-imidazol-1-yl)methyl)-2′,3′-dihydro-1′H-spiro[cyclobutan-1,4′-isoquinoline]-1′-one] | < 20 nM | –
CNc1nccn1Cc1cc(CN(C)C)c2c(c1)C(=O)N(C(C)c1ccc(O)c(O)c1)CC21CCC1 (stereo not drawn) [Compound 115, 2′-(1-(3,4-dihydroxylphenyl)ethyl)-5′-((dimethylamino)methyl)-7′-((2-(methylamino)-1H-imidazol-1-yl)methyl)-2′,3′-dihydro-1′H-spiro[cyclobutan-1,4′-isoquinoline]-1′-one] | 20 to 100 nM | –
CCOc1cc([C@H](C)N2CC3(CC3)c3c(CN(C)C)cc(Cn4cnc5c4CCCC5)cc3C2=O)ncc1F [Compound 114, (S)-5′-((dimethylamino)methyl)-2′-(1-(4-ethoxy-5-fluoropyridine-2-yl)ethyl)-7′-((4,5,6,7-tetrahydro-1H-benzo[d]imidazol-1-yl)methyl)-2′,3′-dihydro-1′H-spiro[cyclopropan-1,4′-isoquinoline]-1′-one] | < 20 nM | –
CCOc1cc([C@H](C)N2CC3(CCC3)c3c(CN4CCC(N(C)C)CC4)cc(Cn4ccnc4NC)cc3C2=O)ncc1C#N [Compound 74] | < 20 nM | –
CCOc1cc([C@H](C)N2C[C@@]3(CC3(F)F)c3c(CN(C)C)cc(Cn4ccnc4NC)cc3C2=O)ncc1F (stereo in doubt) [Compound 97, (R)-5′-((dimethylamino)methyl)-2′-((S)-1-(4-ethoxy-5-fluoropyridine-2-yl)ethyl)-2,2-difluoro-7′-((2-(methylamino)-1H imidazol-1-yl)methyl)-2′, 3′-dihydro-1′H-spiro[cyclopropan-1,4′-isoquinoline]-1′-one] | < 20 nM | –
CCOc1cc(C(C)N2CC3(CCC3)c3c(CN4CC5(CNC5)C4)cc(Cn4ccnc4NC)cc3C2=O)ncc1C#N (stereo not drawn) [Compound 102] | 20 to 100 nM | –
CCOc1cc([C@H](C)N2CC3(CC3)c3c(CN4CCN(CCC(F)(F)F)CC4)cc(Cn4ccnc4NC)cc3C2=O)ncc1F [Compound 65] | < 20 nM | –
CCOc1cc(CN2CC3(CCC3)c3c(CN(C)C)cc(Cn4ccnc4C)cc3C2=O)ncc1C#N [Compound 117, 6-((5′-((dimethylamino)methyl)-7′-((2-methyl-1H-imidazol-1-yl)methyl)-1′-oxo-1′H-spiro[cyclobutan-1,4′-isoquinoline]-2′-3′H-yl)methyl)-4-ethoxynicotinonitrile] | < 20 nM | –
CCOc1cc([C@H](C)N2CC3(CC3)c3c(CN4CC(N(C)C)C4)cc(Cn4ccnc4NC)cc3C2=O)ncc1F [Compound 58, (S)-5′-((3-(dimethylamino)azetidinyl-1-yl)methyl)-2′-(1-(4-ethoxy-5-fluoropyridine-2-yl)ethyl)-7′-((2-(methylamino)-1H-imidazol-1-yl)methyl)-2′,3′-dihydro-1′H-spiro[cyclopropan-1,4′-isoquinoline]-1′-one] | < 20 nM | –
CCOc1cc(CN2CC3(CC3)c3c(CN4CCN(C)CC4)cc(Cn4ccnc4NC)cc3C2=O)ncc1F [Compound 69, 2′-((4-ethoxy-5-fluoropyridine-2-yl)methyl)-7′-((2-(methylamino)-1H-imidazol-1-yl)methyl)-5′-((4-methylpiperazin-1-yl)methyl)-2′,3′-dihydro-1′H-spiro[cyclopropan-1,4′-isoquinoline]-1′-one] | < 20 nM | –
CCOc1cc([C@@H](C)N2C[C@@]3(CC3(F)F)c3c(CN(C)C)cc(Cn4ccnc4NC)cc3C2=O)ncc1F [Compound 90, (R)-5′-((dimethylamino)methyl)-2′-((R)-1-(4-ethoxy-5-fluoropyridine-2-yl)ethyl)-2,2-difluoro-7′-((2-(methylamino)-1H imidazol-1-yl)methyl)-2′, 3′-dihydro-1′H-spiro[cyclopropan-1,4′-isoquinoline]-1′-one] | < 20 nM | –
CCOc1cc([C@H](C)N2CC3(CC3)c3c(C(=O)N(C)C)cc(Cn4ccnc4NC)cc3C2=O)ncc1F [Compound 110] | < 20 nM | –
CCOc1cc([C@H](C)N2CC3(CCC3)c3c(CN4CCNCC4)cc(Cn4ccnc4NC)cc3C2=O)ncc1C#N [Compound 49, (S)-4-ethoxy-6-(1-(7′-((2-(methylamino)-1H-imidazol-1-yl)methyl)-1′-one-5′-(piperazin-1-ylmethyl)-1′H-spiro[cyclobutan-1,4′-isoquinoline]-2′(3′H)-yl)ethyl)nicotinonitrile] | < 20 nM | –
CCOc1cc([C@H](C)N2CC3(CCC3)c3c(CN4CCC(NC)CC4)cc(Cn4ccnc4NC)cc3C2=O)ncc1C#N [Compound 75, (S)-4-ethoxy-6-(1-(7′-((2-(methylamino)-1H-imidazol-1-yl)methyl)-5′-((4-(methylamino)piperidin-1-yl)methyl)-1′-one-1′H-spiro[cyclobutan-1,4′-isoquinoline]-2′(3′H)-yl)ethyl)nicotinonitrile] | < 20 nM | –
CCOc1cc([C@H](C)N2CC3(CC3)c3c(CN4CCCCC4)cc(Cn4ccnc4NC)cc3C2=O)ncc1F [Compound 7] | < 20 nM | –
CCOc1cc([C@H](C)N2CC3(CCC3)c3c(CN4CCN(C(C)=O)CC4)cc(Cn4ccnc4NC)cc3C2=O)ncc1F [Compound 86, (S)-5′-((4-acetylpiperazin-1-yl)methyl)-2′-(1-(4-ethoxy-5-fluoropyridine-2-yl)ethyl)-7′-((2-(methylamino)-1H-imidazol-1-yl)methyl)-2′,3′-dihydro-1′H-spiro[cyclobutyl-1,4′-isoquinoline]-1′-one] | < 20 nM | –

From patent US20240101535A1, “DIHYDROISOQUINOLINONE DERIVATIVE AND APPLICATION THEREOF” (ETERN BIOPHARMA (SHANGHAI) CO., LTD., priority 2020, published 2024)
